System: neonatal cardiomyocytes
Experiment: Myocyte calcium-contractility assay
Assay type: cell-based, rat
Conditions: anaerobic chamber 16 hours in DMEM 1 mM glucose, reoxygenation two hours
Protocol: A. Isolation and Culture of Primary Neonate Myocytes.
The following materials are employed: • 10× Heart Dissection Solution (HDS) contains the following components (g/l) in tissue grade water: NaCl, 68; HEPES, 47.6; NaH2PO4, 2; Glucose, 10; KCl, 4; MgSO4, 1, pH adjusted to 7.4. Prior to filter sterilization of diluted (1×HDS) solution, 10 mg phenol red is added to each 500 milliliters of medium. • Transferrin and Bovine Insulin (available from Life Technologies) are resuspended at a concentration of 4 mg/ml in tissue culture grade water. • DMEM-F12—DMEM/F12, powder, 1:1 containing glutamine and pyridoxine hydrochloride (available from Life Technologies). To one liter equivalent of the powder is added 2.43 g of sodium bicarbonate and 10 ml of 100× Penicillin/Streptomycin in 950 ml of tissue culture grade water with stirring. The pH is adjusted to 7.2 with 1M HCl and volume adjusted to 1 liter. The solution is filter sterilized, followed by the addition of 2.5 ml of 4 mg/ml Transferrin, 250 μl 4 mg/ml Insulin and 30.7 mg of bromodeoxyuridine. • DMEM-F12-5% FBS is also prepared for pre-coating the tissue culture plates and initial suspension of the cardiomyocyte pellet. • Collagenase solution-57.1 mg of collagenase is resuspended in 140 ml 1×HDS.
Tissue culture ware is pre-coated with DMEM-F12-5% FBS by incubating […] per well of a 96-well plate and 0.5 ml per 24-well plate at 37° C.
Two-day old rat pups are removed from their mothers and placed in a sterile container. Pups are dipped quickly into 70% alcohol, then decapitated and the body placed in an empty sterile tissue culture dish. An incision is made starting at the neck and progressing towards the belly, cutting through the sternum. The heart is removed and placed in a tissue culture dishes containing 1×HDS. The atria are trimmed, and the remaining ventricles are placed into a separate tissue culture dish containing 1×HDS, where they are sectioned into 3-4 pieces each. Ventricles are then transferred to a sterile 250 ml glass flask and the 1×HDS is removed. Twenty milliliters of pre-warmed collagenase solution is added to the ventricles, followed by incubation at 37° C. with shaking. After 20 minutes, the collagenase solution is removed and replaced with 20 ml fresh pre-warmed collagenase. Incubation is continued for an additional 20 minutes. At the end of the incubation, any tissue chunks are allowed to settle prior to removing the collagenase (containing the isolated cardiomyocytes) from the disrupted tissue pieces. The isolated myocytes are added to a 50 ml Falcon tube containing 2 ml Fetal Bovine Serum (FBS). The remaining tissue pieces are subjected to a second digestion by adding 20 ml fresh pre-warmed collagenase and incubating as above for 20 minutes. This second digest is then centrifuged at 1000 rpm for 5 minutes (tabletop centrifuge). The resulting supernatant is discarded, and the cell pellet is suspended with 4 ml FBS. The resulting cell suspension is placed in the incubator at 37° C. This step is repeated several additional times to harvest additional material.
Percoll gradients are prepared by adding 2.5 ml of 10×HDS to 22.5 ml of Percoll (Life Technologies) with mixing (Percoll Stock). Top Gradient solution (11 ml Percoll Stock and 14 ml 1×HDS) and Bottom Gradient solution (13 ml Percoll Stock and 7 ml 1×HDS) are prepared. Four milliliters of the Top Gradient solution is transferred into 6×15 ml sterile Falcon tubes. Three milliliters of the Bottom Gradient solution is placed in each tube by inserting a serological pipette to the bottom of the tube and slowly adding the liquid.
All the digests (6) are pooled in one 50 ml Falcon tube and centrifuged on a tabletop centrifuge at 1000 rpm for 10 minutes. The supernatant is discarded, and the cell pellet is resuspended in 12 ml of 1×HDS. Two milliliters of the cell suspension is added to the top of each gradient. […]

Compound | calcium transients (Fluo-4) in amounts indicative of ability guard against ischemic damage and maintain contractile function
COc1cc(C=Cc2ccc(C#N)cc2)ccc1O [4-[2-(4-hydroxy-3-methoxy-phenyl)-vinyl]-benzonitrile] | presence of calcium transients
COC(=O)c1ccc(C=Cc2ccc(C)s2)cc1 [4-[2-(5-methyl-thiophen-2-yl)-vinyl]-benzoic acid methyl ester] | presence of calcium transients
COCOc1cc(C=Cc2ccc(C(=O)OC)cc2)cc(CC=C(C)C)c1OCOC [4-{2-[3,4-bis-methoxymethoxy-5-(3-methyl-but-2-enyl)-phenyl]-vinyl}-benzoic acid methyl ester] | presence of calcium transients
COCOc1cc(C=Cc2ccc(C#N)cc2)cc(OCOC)c1CC=C(C)C [4-{2-[3,5-bis-methoxymethoxy-4-(3-methyl-but-2-enyl)-phenyl]-vinyl}-benzonitrile] | presence of calcium transients
COC(=O)c1ccc(C=Cc2cc(CC=C(C)CCC=C(C)C)c(O)c(OC)c2)cc1 [4-{2-[3-(3,7-dimethyl-octa-2,6-dienyl)-4-hydroxy-5-methoxy-phenyl]-vinyl}-benzoic acid methyl ester] | presence of calcium transients
COc1cc(C=Cc2ccc(C#N)cc2)cc(CC=C(C)CCC=C(C)C)c1O [4-{2-[3-(3,7-dimethyl-octa-2,6-dienyl)-4-hydroxy-5-methoxy-phenyl]-vinyl}-benzonitrile] | presence of calcium transients
COCOc1c(CC=C(C)CCC=C(C)C)cc(C=Cc2ccc(C#N)cc2)cc1OC [4-{2-[3-(3,7-dimethyl-octa-2,6-dienyl)-5-methoxy-4-methoxymethoxy-phenyl]-vinyl}-benzonitrile] | presence of calcium transients
COCOc1c(CC=C(C)C)cc(C=Cc2ccc(C(=O)OC)cc2)cc1OC [4-{2-[3-methoxy-4-methoxymethoxy-5-(3-methyl-but-2-enyl)-phenyl]-vinyl}-benzoic acid methyl ester] | presence of calcium transients
COCOc1cc(C=Cc2ccc(C(=O)OC)cc2)cc(OCOC)c1CC=C(C)CCC=C(C)C [4-{2-[4-(3,7-dimethyl-octa-2,6-dienyl)-3,5-bis-methoxymethoxy-phenyl]-vinyl}-benzoic acid methyl ester] | presence of calcium transients
COCOc1cc(C=Cc2ccc(C#N)cc2)cc(OCOC)c1CC=C(C)CCC=C(C)C [4-{2-[4-(3,7-dimethyl-octa-2,6-dienyl)-3,5-bis-methoxymethoxy-phenyl]-vinyl}-benzonitrile] | presence of calcium transients
Oc1cc(-c2ccc(C=Cc3ccc(O)c(O)c3)cc2)n[nH]1 [4-{2-[4-(5-hydroxy-1H-pyrazol-3-yl)-phenyl]-vinyl}-benzene-1,2-diol] | presence of calcium transients
COCOc1ccc(C=C2SC(=O)NC2=O)cc1OCOC [5-(3,4-bis-methoxymethoxy-benzylidene)-thiazolidine-2,4-dione] | presence of calcium transients
O=C1NC(=O)C(=Cc2ccc(O)c(O)c2)S1 [5-(3,4-dihydroxy-benzylidene)-thiazolidine-2,4-dione] | presence of calcium transients
COCOc1cc(C=Cc2cc(OC)c(OCOC)c(OC)c2)cc(OCOC)c1CC=C(C)C [5-[2-(3,5-dimethoxy-4-methoxymethoxy-phenyl)-vinyl]-2-(3-methyl-but-2-enyl)-1,3-(bis-methoxymethoxy)-benzene] | presence of calcium transients
COCOC(=O)c1cc(C=Cc2ccc(C(=O)OC)cc2)ccc1OCOC [5-[2-(4-methoxycarbonyl-phenyl)-vinyl]-2-methoxymethoxy-benzoic acid methoxymethyl ester] | presence of calcium transients
O=[N+]([O-])c1ccc(C=Cc2cc(O)cc(O)c2)cc1 [5-[2-(4-nitro-phenyl)-vinyl]-benzene-1,3-diol] | presence of calcium transients
Cc1c(C)c2c(c(COc3ccc(C=C4SC(=O)NC4=O)cc3)c1O)CCC(C)(CCCC(C)CCCC(C)CCCC(C)C)O2 (stereo not shown) [5-{4-[6-hydroxy-2,7,8-trimethyl-2-(4,8,12-trimethyl-tridecyl)-chroman-5-ylmethoxy]-benzylidene}-thiazolidine-2,4-dione] | presence of calcium transients
COCOc1ccc(C=Cc2ccc(N(C)C)cc2)cc1OCOC [{4-[2-(3,4-bis-methoxymethoxy-phenyl)-vinyl]-phenyl}-dimethyl-amine] | presence of calcium transients
CNc1ccc(C=Cc2ccc(OCOC)c(OCOC)c2)cc1 [{4-[2-(3,4-bis-methoxymethoxy-phenyl)-vinyl]-phenyl}-methyl-amine] | presence of calcium transients
